Measured values from patent EP0324212A1, “Glucuronic acid derivatives of opioid antagonists” (BAKER NORTON PHARMACEUTICALS, INC., priority 1988, dated 1989).
“And” between values parts separate entries of the source, which are not always exact repeats. Equal values may be shown once. Where a name gives a salt, the structure may show the parent alone. Marks after values point to notes of the source that are not given here.

How the values were obtained:
[1] = system: morphine-induced hypomotility; assay: Charcoal meal assay (gastrointestinal motility) of Witkin et al.; type: in vivo, mice; details: for effect on percentage of intestine traveled in the absence of morphine: groups 4 and 6, no morphine; for effect on percentage of intestine traveled in the absence of morphine / alleviation of the depressant effect of morphine on intestinal transit: result in words; for alleviation of the depressant effect of morphine on intestinal transit: groups 5 and 7, morphine 10 mg/kg p.o.
Text: To determine whether nalmefene glucuronide would alleviate morphine-induced hypomotility, the charcoal meal assay method of Witkin et al. (J. Pharmacol. Ext. Therep., 133: 400, 1961) was done on 56 mice. […]

opioid-dependant animals = assay: Rapid Quantitative In Vivo Assay for Narcotic Antagonist of Katovich et al. (skin tail temperature rise as a CNS withdrawal sign); details: Figure 2; injection of 1000 µg/kg
Text: The Rapid Quantitative In Vivo Assay for Narcotic Antagonist of Katovich et al. (Substance and Alcohol Actions/Misuse, vol 5: 87095, 1984) was used. This assay is based on the extreme sensitivity of opioid-dependant animals to narcotic antagonists. Injection of these animals with a narcotic antagonist produces severe central nervous system withdrawal signs. One of these signs is an abrupt rise in the skin temperature of the tail.

[2] = Absorption and intestinal distribution of 14C labelled nalmefene glucuronide after oral administration; type: in vivo; details: rats
Text: However the 2-3% of the dose which had reached the cecum by this time was almost exclusively free nalmefene. Therefore the glucuronide of an opioid antagonist provides a means of preventing narcotic-induced intestinal hypomotility without interfering with central nervous system effects of narcotics, such as analgesia.

[3] = Morphine 10 mg/kg p.o. 30 minutes before drug p.o., 15 mg/kg or 2.9 x 10⁻⁶ M/kg nalmefene glucuronide, 2.9 x 10⁻⁶ M/kg nalmefene HCl, determined 30 min later
[4] = Saline p.o. 30 minutes before drug p.o. (no morphine), 15 mg/kg or 2.9 x 10⁻⁶ M/kg nalmefene glucuronide, 2.9 x 10⁻⁶ M/kg nalmefene HCl, determined 30 min later

## C=C1CC[C@@]2(O)[C@H]3Cc4ccc(O)c5c4[C@@]2(CCN3CC2CC2)[C@H]1O5 [Nalmefene HCl, 6-methylene-6-desoxy-N-cyclopropylmethyl-14-hydroxydihydronormorphine]
[1]; [3]
  Percent Meal Traveled ± S.E.M.: 66 ± 14 (N=5)^d,^e,^f Percent
[1]; [4]
  Percent Meal Traveled ± S.E.M.: 63 ± 2 (N=8)^c Percent
[1]
  effect on percentage of intestine traveled in the absence of morphine: neither nalmefene (group 6) nor nalmefene glucuronide (group 4) had any significant effect
  alleviation of the depressant effect of morphine on intestinal transit: protected the intestine against the depressant effect of morphine

## CN1CC[C@]23c4c5ccc(O)c4O[C@H]2[C@@H](O)C=C[C@H]3[C@H]1C5 [Morphine]
[1]; mouse, in vivo
  Percent Meal Traveled ± S.E.M.: 28 ± 2 (N=8)^c Percent and 31 ± 3 (N=8)^c,^g Percent
  reduction of the percentage of the intestine traveled: more than half

## C=C1CCC2(O)C3Cc4ccc(OC5OC(C(=O)O)C(O)C(O)C5O)c5c4C2(CCN3CC2CC2)C1O5 [Nalmefene Glucuronide, nalmefene-3β-D-glucuronide]
[1]; [3]
  Percent Meal Traveled ± S.E.M.: 58 ± 12 (N=5)^d,^e,^h,^i Percent
[1]; [4]
  Percent Meal Traveled ± S.E.M.: 66 ± 3 (N=8)^d Percent
[1]
  effect on percentage of intestine traveled in the absence of morphine: neither nalmefene (group 6) nor nalmefene glucuronide (group 4) had any significant effect
[1]; listed as nalmefene glucuronide
  alleviation of the depressant effect of morphine on intestinal transit: protected the intestine against the depressant effect of morphine
[1]; listed as nalmefene-3β-D-glucuronide
  alleviation of the depressant effect of morphine on intestinal transit: as effective as nalmefene
[1]; listed as nalmefene-β-D-glucuronide
  alleviation of the depressant effect of morphine on intestinal transit: as effective as nalmefene
opioid-dependant animals
  rise in skin tail temperature: had no effect
[2]; doses as high as 40 mg/kg
  absorption following oral administration: not absorbed to any measurable extent
[2]; oral, 2 hours after dosing
  dose present in the small intestine still as nalmefene glucuronide: about 85%
  radioactivity in plasma: No radioactivity could be detected
